# In paper PMC8197120, “Synthesis and Characterization of Some New Quinoxalin-2(1H)one and 2-Methyl-3H-quinazolin-4-one Derivatives Targeting the Onset and Progression of CRC with SAR, Molecular Docking, and ADMET Analyses” (Molecules, 2021):
# Like-named read-outs stand apart in the source and are kept apart here.
# How the values were obtained:
# COX-2 = molecular target: T1, COX-2 (Homo sapiens, UniProt P35354); assay: Cyclooxygenase (COX-2) inhibition assay (Cayman kit 701080); assay type: biochemical; conditions: for inhibition at 100 µg/mL: read-out: Mean Inhibition % at 100 µg/ml ± SD; for inhibition at 200 µg/mL: read-out: Mean Inhibition % at 200 µg/ml ± SD
# T1 construct: purchased Cayman Chemical Company 701080
# T1 sequence (P35354 18-604): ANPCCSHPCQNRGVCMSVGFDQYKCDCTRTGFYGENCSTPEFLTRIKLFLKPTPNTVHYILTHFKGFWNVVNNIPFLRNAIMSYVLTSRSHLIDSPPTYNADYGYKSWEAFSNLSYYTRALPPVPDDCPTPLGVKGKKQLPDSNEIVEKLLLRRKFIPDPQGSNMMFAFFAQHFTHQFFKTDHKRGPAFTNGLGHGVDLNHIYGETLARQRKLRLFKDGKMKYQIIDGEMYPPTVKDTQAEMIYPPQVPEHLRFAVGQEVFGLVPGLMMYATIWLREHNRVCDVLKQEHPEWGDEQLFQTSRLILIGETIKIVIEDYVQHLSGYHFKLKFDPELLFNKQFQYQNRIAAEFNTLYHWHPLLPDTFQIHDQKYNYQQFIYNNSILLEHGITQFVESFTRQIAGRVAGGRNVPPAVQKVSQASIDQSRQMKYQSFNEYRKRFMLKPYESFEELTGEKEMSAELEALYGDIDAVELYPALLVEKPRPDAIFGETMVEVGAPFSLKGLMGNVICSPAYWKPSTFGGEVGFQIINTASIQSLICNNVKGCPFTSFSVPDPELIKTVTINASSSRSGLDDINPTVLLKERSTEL
# Procedure: The compounds were resuspended in 100% DMSO at a final concentration of 10 mg/mL. […] The inhibitory activity was expressed as the inhibition percentage, which was determined by comparison with a control experiment. IC50 values were deduced from the curves.
# [1] = In vitro cytotoxicity assay (LDH release); assay type: cell-based, human; conditions: human
# Procedure: (§1) The best-in-class compounds, including (4c), (4d), (6a), (6b), (6d), (6e), and (6g), which were recognized as antimicrobial and enzymatic inhibitors, were further examined for their cytotoxic effects on LoVo and HCT-116 cells of human colon cancer. This was carried out by determining the residual percentages of viable cells after being treated with the compounds at different concentrations (50, 100, 200, and 400 µg/mL), using triton X-100 (at concentration of 0.1%) in the assay medium and the assay as the positive and negative controls, respectively.
# (§2) Samples were diluted in Dulbecco’s modified Eagles medium, consisting of 10% fetal bovine serum, added to cells grown and cultured for 24 h in a 5% CO2-humidified incubator at 37 °C. Then, the activity of lactate dehydrogenase released from damaged cells was determined in the collected supernatant aliquots using an ELISA end-point assay (Benchmark Plus, Bio-Rad, CA, USA). The 0.1% Triton X-100 in the assay medium and the assay medium only were used as positive and negative controls, respectively. Cell viability, expressed as a relative percentage of the OD values (at 550 nm) for compound-treated cells (final concentration of 200 µg) and the control, is shown as mean ± SD (n = 2).
# [2] = molecular target: purified recombinant human LDHA protein (Homo sapiens, UniProt P00338); assay: Lactate dehydrogenase-A (LDHA) inhibition assay, NADH consumption; assay type: biochemical; conditions: for inhibition at 100 µg/mL / inhibition at 200 µg/mL / IC50: LDHA; for inhibition at 100 µg/mL: read-out: Mean Inhibition % at 100 µg/ml ± SD; for inhibition at 200 µg/mL: read-out: Mean Inhibition % at 200 µg/ml ± SD; for fold by which (6e) is more potent than the labelled compound (LDHA inhibition efficiency): comparator 6e
# Procedure: LDHA inhibition activity was investigated by measuring the amounts of consumed NADH as described by Kim and his group. Briefly, different concentrations of each compound (50, 100, 200, and 300 µg) were incubated in buffer containing 20 mM of HEPES-K+ (pH 7.2), 20 μM of NADH, 2 mM of pyruvate, and 10 ng of purified recombinant human LDHA protein for 10 min. The fluorescence of NADH, which has an excitation wavelength of 340 nm and emission wavelength of 460 nm, was detected using a Spectrofluorometer.
# [3] = system: Bacteroides fragilis (ATCC 25285); assay: Antibacterial activity, CFU viability; assay type: cell-based; conditions: ATCC25285, mean of two determinations, read-out: Mean IC50 ± SD
# Procedure: (§3) Pure standard microbial isolates collected from King Khaled University Hospital were tested in this study, including Enterococcus faecalis (ATCC 29122) as Gram positive bacteria and Escherichia coli (ATCC 25922) and Bacteroides fragilis (ATCC 25285) as Gram negative bacteria. Fresh cultures of each microorganism were grown on nutrient agar plates (Oxoid, UK), of which small inoculums were suspended in 5 mL nutrient broth for bacterial suspension preparation of 0.5MacFarland. Bacterial viability was investigated by estimating the colony-forming unit (CFU) ability of the bacteria incubated at different time intervals without or with appropriate amounts of the compound that were mixed with 2 × 10^7 CFU/mL in sterile BHI broths and were incubated under shaking for 60 min at 37 °C. Samples were serially diluted into sterile BHI broths, streaked onto media agar plates, and incubated for 24 h at 37 °C. The antibacterial potency of tested compounds was expressed as the residual number of CFU with reference to the initial inoculums. […] Ampicillin (1 mg/mL) was used as a positive standard reference.
# [4] = system: Escherichia coli (ATCC 25922); assay: Antibacterial activity, CFU viability; assay type: cell-based; conditions: ATCC25922, mean of two determinations, read-out: Mean IC50 ± SD
# Procedure: as §3
# [5] = system: Enterococcus faecalis (ATCC 29122); assay: Antibacterial activity, CFU viability; assay type: cell-based; conditions: ATCC29122, mean of two determinations, read-out: Mean IC50 ± SD
# Procedure: as §3
# LoVo cells = assay: In vitro cytotoxicity assay (LDH release); assay type: cell-based, human
# Procedure: as §1, §2
# HCT-116 cells = assay: In vitro cytotoxicity assay (LDH release); assay type: cell-based, human
# Procedure: as §1, §2
# [6] = HCT-116 colon cancer cells, read-out: Mean % Cell Viability ± SD CRC-HCT-116 cells
# [7] = LoVo colon cancer cells, read-out: Mean % Cell Viability ± SD CRC-LoVo cells
compound,measurement,setting,value
"COc1cc(C=NNc2nc3ccccc3[nH]c2=O)cc([N+](=O)[O-])c1O [Compound 4c, 3-[N’-(4-Hydroxy-3-methoxy-5-nitro-benzylidene)-hydrazino]-1H-quinoxalin-2-one]",inhibition at 100 µg/mL,COX-2,36.5 ± 3.46%
same,inhibition at 200 µg/mL,COX-2,61.1%
same,"viability at 24 h, 200 µg/mL",[1]; [6],77.3 ± 3.25%
same,"viability at 24 h, 200 µg/mL",[1]; [7],72.2 ± 4.45%
same,inhibition at 100 µg/mL,[2],40.6 ± 2.33%
same,inhibition at 200 µg/mL,[2],64.2%
same,IC50,[3],8.05 ± 0.778 µg/mL
same,IC50,[4],12.7 ± 0.778 µg/mL
same,IC50,[5],9.6 µg/mL
"O=C(O)c1ccc(/C=N/Nc2nc3ccccc3[nH]c2=O)cc1 [Compound 4d, 4-[(3-Oxo-3,4-dihydro-quinoxalin-2-yl)-hydrazonomethyl]-benzoic acid]",inhibition at 100 µg/mL,COX-2,14.4 ± 0.778%
same,inhibition at 200 µg/mL,COX-2,28.9%
same,"viability at 24 h, 200 µg/ml",[1]; [6],65.5 ± 3.54%
same,"viability at 24 h, 200 µg/ml",[1]; [7],60 ± 4.24%
same,IC50,[2],362 µM
same,inhibition at 100 µg/mL,[2],47.4 ± 3.96%
same,inhibition at 200 µg/mL,[2],85%
same,IC50,[3],28.2 ± 1.77 µg/mL
same,IC50,[4],30.6 ± 2.62 µg/mL
same,IC50,[5],10.8 µg/mL
"COc1cc2nc(C)n(N=Cc3cc(OC)c(O)c([N+](=O)[O-])c3)c(=O)c2cc1OC [Compound 6a, 3-[(4-Hydroxy-3-methoxy-5-nitro-benzylidene)-amino]-6,7-dimethoxy-2-methyl-3H-quinazolin-4-one]",IC50,COX-2,293 µM
same,inhibition at 100 µg/mL,COX-2,42.9 ± 2.97%
same,inhibition at 200 µg/mL,COX-2,83%
same,"viability at 24 h, 200 µg/mL",[1]; [6],91.2 ± 3.11%
same,"viability at 24 h, 200 µg/mL",[1]; [7],92.2 ± 2.62%
same,IC50,[2],248 µM
same,inhibition at 100 µg/mL,[2],62.5%
same,inhibition at 200 µg/mL,[2],89.7%
same,IC50,[3],10.9 ± 0.566 µg/mL
same,IC50,[4],7.9 ± 0.849 µg/mL
same,IC50,[5],13.8 ± 0.495 µg/mL
"COc1cc2nc(C)n(N=Cc3ccc(C(=O)O)cc3)c(=O)c2cc1OC [Compound 6b, 4-[(6,7-Dimethoxy-2-methyl-4-oxo-4H-quinazolin-3-ylimino)-methyl]-benzoic acid]",inhibition at 100 µg/mL,COX-2,37.1 ± 2.69%
same,inhibition at 200 µg/mL,COX-2,69 ± 2.76%
same,"viability at 24 h, 200 µg/mL",[1]; [6],47 ± 2.83%
same,"viability at 24 h, 200 µg/mL",[1]; [7],54.2 ± 2.47%
same,inhibition at 100 µg/mL,[2],32 ± 2.55%
same,inhibition at 200 µg/mL,[2],49.2%
same,IC50,[3],10.3 ± 1.2 µg/mL
same,IC50,[4],18.2 ± 0.99 µg/mL
same,IC50,[5],12.7 µg/mL
"COc1cc2nc(C)n(N=Cc3ccc(OCc4ccccc4)c(OC)c3)c(=O)c2cc1OC [Compound 6d, 3-[(4-Benzyloxy-3-methoxy-benzylidene)-amino]-6,7-dimethoxy-2-methyl-3H-quinazolin-4-one]",IC50,COX-2,215 µM
same,inhibition at 100 µg/mL,COX-2,50.2%
same,inhibition at 200 µg/mL,COX-2,97.5%
same,"viability at 24 h, 200 µg/mL",[1]; [6],18.5%
same,IC50 at 24 h,"[1]; HCT-116 human colon cancer cells, HCT-116 cells",100 µg/mL
same,"viability at 24 h, 200 µg/mL",[1]; [7],26.8%
same,IC50 at 24 h,"[1]; LoVo human colon cancer cells, LoVo cells",128 µg/mL
same,fold by which (6e) is more potent than the labelled compound (LDHA inhibition efficiency),[2]; 200 µg/mL,1.7 fold
same,inhibition at 100 µg/mL,[2],31.2 ± 1.63%
same,inhibition at 200 µg/mL,[2],44.4 ± 3.39%
same,IC50,[3],9 ± 0.99 µg/mL
same,IC50,[4],18.4 ± 1.27 µg/mL
same,IC50,[5],15.2 ± 0.919 µg/mL
"COc1cc(C=Nn2c(C)nc3ccc(Cl)cc3c2=O)ccc1OCc1ccccc1 [Compound 6e, 3-[(4-Benzyloxy-3-methoxy-benzylidene)-amino]-6-chloro-2-methyl-3H-quinazolin-4-one]",IC50,COX-2,222 µM
same,inhibition at 100 µg/mL,COX-2,57.9%
same,inhibition at 200 µg/mL,COX-2,100%
same,"viability at 24 h, 200 µg/mL",[1]; [6],89 ± 2.83%
same,"viability at 24 h, 200 µg/mL",[1]; [7],93.4 ± 4.81%
same,inhibition at 100 µg/mL,[2],44.8 ± 2.9%
same,inhibition at 200 µg/mL,[2],76.8%
same,IC50,[3],12.8 ± 0.919 µg/mL
same,IC50,[4],15.7 ± 0.919 µg/mL
same,IC50,[5],12.4 µg/mL
"CCc1ccc(/C=N/n2c(C)nc3ccc(Cl)cc3c2=O)s1 [Compound 6f, 6-Chloro-3-oro-3-[(5-ethyl-thiophen-2-ylmethylene)-amino]-2-methyl-3H-quinazolin-4-one]",inhibition at 100 µg/mL,COX-2,10 ± 1.41%
same,inhibition at 200 µg/mL,COX-2,20.7%
same,fold by which (6e) is more potent than the labelled compound (LDHA inhibition efficiency),[2]; 200 µg/mL,1.9 fold
same,fold decrease of LDHA inhibition efficiency relative to (6g),"[2]; 200 µg/mL, comparator 6g",2.2 fold
same,inhibition at 100 µg/mL,[2],27.1 ± 1.48%
same,inhibition at 200 µg/mL,[2],40%
same,IC50,[3],27.9 ± 1.56 µg/mL
same,IC50,[4],33.4 ± 3.39 µg/mL
same,IC50,[5],22.6 ± 0.636 µg/mL
"CCc1ccc(C=Nn2c(C)nc3ccc(F)cc3c2=O)s1 [Compound 6g, 3-[(5-Ethyl-thiophen-2-ylmethylene)-amino]-6-fluoro-2-methyl-3H-quinazolin-4-one]",inhibition at 100 µg/mL,COX-2,28.8 ± 2.47%
same,inhibition at 200 µg/mL,COX-2,48.6 ± 3.75%
same,"viability at 24 h, 200 µg/mL",[1]; [6],86.5 ± 2.12%
same,"viability at 24 h, 200 µg/mL",[1]; [7],88.2 ± 2.62%
same,IC50,[2],334 µM
same,inhibition at 100 µg/mL,[2],53.6%
same,inhibition at 200 µg/mL,[2],89.8%
same,IC50,[3],19.9 ± 2.26 µg/mL
same,IC50,[4],24.8 ± 1.77 µg/mL
same,IC50,[5],17.2 ± 1.77 µg/mL
Triton X-100 [reference compound],"Mean % Cell Viability, positive control",LoVo cells,0.00%
same,"Mean % Cell Viability, positive control",HCT-116 cells,0.00%
